Source: patent publication US20250144249A1, “METHODS USING SURFACE-EXPRESSIBLE ACTIVATABLE EPITOPES TO LOCALIZE AND/OR TREAT DISEASED CELLS” (EARLI Inc., priority 2022, published 2025)
Entries after “also recorded” stand apart in the source; their conditions may differ.

Tests used:
Type in all cases: cell-based, human
H1299 cells [1] = test: number of copies of anti-DLL3 antibody bound to DLL3 on the cell surface (quantification bead standard curve)
Method: Next, a physical number of copies of anti-DLL3 antibody bound to DLL3 expressed on the cell surface was assessed. H1299 cells were seeded into 96 well plate. 24 hours after seeding, H1299 cells were transfected with nanoplasmid vectors comprising NP116 (wild-type control), NP247 (with a single DLL3 epitope in the CD8 scaffold), or NP298 (with two DLL3 epitopes in the CD8 scaffold) via lipofectamine according to the manufacture's protocols. H1299 cells were then stained with fluorescently labeled anti-DLL3 antibodies for FACS analysis. Cells and commercially available beads for epitope quantification were then stained with an anti-DLL3 secondary antibody conjugated to Alexa Fluor® 647 (AF647). H1299 cells were subsequently analyzed on a BD Biosciences FACSAria IIu (FIGS. 10A-10C). The number of epitopes were calculated by comparing the cell's expression to the quantification bead standard curve (FIGS. 10B-10C).
Each of NP247 and NP298 constructs and wild-type DLL3 construct (NP116) was separately introduced to H1299 cells by transfection to analyze the expression of engineered DLL3. […] H1299 cells stably expressing wild-type or engineered DLL3 and commercially available beads for epitope quantification were then stained with an anti-DLL3 secondary antibody conjugated to Alexa Fluor® 647 (AF647). H1299 cells were subsequently analyzed on a BD Biosciences FACSAria IIu. […]

H1299 cells [2] = test: in vitro cell killing assay with anti-DLL3-PBD (Example 4); conditions: H1299 cells transfected with construct, treated with anti-DLL3-PBD; compared to NP116 or NP127; FIG. 8D
Method: Next, in vitro cell killing assay was performed to determine the ability of anti-DLL3 antibodies conjugated with a cytotoxic payload (anti-DLL3-PBD) to induce cytotoxicity. The anti-DLL3-PBD was introduced to H1299 cells transfected with NP247 (G1 in FIG. 8A), NP249 (D1 in FIG. 8A), NP116 (wild-type control), or NP127 (wild-type control).

H1299 cells [3] = test: FACS detection of engineered DLL3 on the surface of transfected H1299 cells (Example 4); conditions: for percent positive (DLL3-positive cells) / expression level of DLL3 on the cell surface: H1299 cells transfected with construct; for expression level of DLL3 on the cell surface: fluorescently labeled anti-DLL3 antibody, FACS, compared to wild-type DLL3 (NP116, NP127)
From the text: Each of the six engineered DLL3 constructs ([…]) and two different wild-type DLL3 constructs (NP116 and NP127) was separately introduced to human non-small cell lung carcinoma, H1299 cells (also known as NCI-H1299 or CRL-5803) by transfection to analyze the expression of engineered DLL3. H1299 cells were then stained with fluorescently labeled anti-DLL3 antibodies and analyzed by fluorescence-activated cell sorting (FACS) to detect DLL3 expression. Panels A2-G2 in FIG. 8B, and NP116, NP127, NP244-NP249, and NP268 in FIG. 8C show the amount of DLL3 expressed on the cell surface corresponding to panels A1-G1 in FIG. 8A. […] Specifically, NP249 and NP247 increased percent positive to ˜80% and ˜94%, respectively (FIG. 8C).

H1299 cells [4] = test: cell killing assay, CellTiter Glo 2.0 (Example 7); conditions: treated with anti-DLL3-PBD, 72 hours, compared to NP116, FIG. 13B
Method: Next, H1299 cells stably expressing WT or engineered DLL3 were seeded 5,000 cells/well in 96 well plates. 24 hours after seeding, H1299 cells were treated with a titration of either an unconjugated anti-DLL3 antibody or an anti-DLL3 antibody conjugated to a PBD toxin (anti-DLL3-PBD). 72 hours after antibody treatment, cell viability was assessed using the CellTiter Glo 2.0 assay kit and analyzed on a Promega GloMax Navigator.

NP247: engineered DLL3 construct, DLL3 residues 27-254, CD8a hinge, CD28 transmembrane helix; SEQ ID NO: 37
increase in copy number of anti-DLL3 antibodies compared to cells expressing NP116 (H1299 cells [1]; Example 5, H1299 cells transfected with nanoplasmid vectors, FIG. 10C): 13 fold
increase in copy number of anti-DLL3 antibodies compared to cells expressing NP116 (H1299 cells [1]; Example 7, FIG. 13A): 21 fold
loss of viability of cells expressing the construct (H1299 cells [2]): substantial loss in viability; also recorded: substantial loss of viability
percent positive (DLL3-positive cells) (H1299 cells [3]; FIG. 8C): ~94%
expression level of DLL3 on the cell surface (H1299 cells [3]): increased the expression level of DLL3
mean fluorescence intensity (H1299 cells [3]; compared to DLL3 wild-type or the DLL3 stable cell line, FIG. 8C): significantly higher mean fluorescence intensity
loss of viability / susceptibility to cell death of cells expressing the construct (H1299 cells [4]): may be more susceptible to cell death; also recorded: substantial loss of viability

NP246: engineered DLL3 construct, DLL3 residues 27-492, CD8a SP/CD28 transmembrane helix; SEQ ID NO: 36
expression level of DLL3 on the cell surface (H1299 cells [3]): increased the expression level of DLL3

B1: NP249: engineered DLL3 construct, DLL3 residues 27-492 with CD73 SP/GPI-anchor motif; SEQ ID NO: 39, 46 (protein)
chain: MCPRAARAPATLLLALGAVLWPAAGAAGVFELQIHSFGPGPGPGAPRSPCSARLPCRLFFRVCLKPGLSEEAAESPCALGAALSARGPVYTEQPGAPAPDLPLPDGLLQVPFRDAWPGTFSFIIETWREELGDQIGGPAWSLLARVAGRRRLAAGGPWARDIQRAGAWELRFSYRARCEPPAVGTACTRLCRPRSAPSRCGPGLRPCAPLEDECEAPLVCRAGCSPEHGFCEQPGECRCLEGWTGPLCTVPVSTSSCLSPRGPSSATTGCLVPGPGPCDGNPCANGGSCSETPRSFECTCPRGFYGLRCEVSGVTCADGPCFNGGLCVGGADPDSAYICHCPPGFQGSNCEKRVDRCSLQPCRNGGLCLDLGHALRCRCRAGFAGPRCEHDLDDCAGRACANGGTCVEGGGAHRCSCALGFGGRDCRERADPCAARPCAHGGRCYAHFSGLVCACAPGYMGARCEFPVHPDGASALPAAPPGLRPGDPQRYLGGSSTGSHCHGSFSLIFLSLWAVIFVLYQ
loss of viability of cells expressing the construct (H1299 cells [2]): substantial loss in viability; also recorded: substantial loss of viability
percent positive (DLL3-positive cells) (H1299 cells [3]; FIG. 8C): ~80%
expression level of DLL3 on the cell surface (H1299 cells [3]): increased the expression level of DLL3

B2: NP244: engineered DLL3 construct, DLL3 residues 27-492 with EGFR signal peptide/transmembrane helix; SEQ ID NO: 34 (protein)
chain: MRPSGTAGAALLALLAALCPASRAAGVFELQIHSFGPGPGPGAPRSPCSARLPCRLFFRVCLKPGLSEEAAESPCALGAALSARGPVYTEQPGAPAPDLPLPDGLLQVPFRDAWPGTFSFIIETWREELGDQIGGPAWSLLARVAGRRRLAAGGPWARDIQRAGAWELRFSYRARCEPPAVGTACTRLCRPRSAPSRCGPGLRPCAPLEDECEAPLVCRAGCSPEHGFCEQPGECRCLEGWTGPLCTVPVSTSSCLSPRGPSSATTGCLVPGPGPCDGNPCANGGSCSETPRSFECTCPRGFYGLRCEVSGVTCADGPCFNGGLCVGGADPDSAYICHCPPGFQGSNCEKRVDRCSLQPCRNGGLCLDLGHALRCRCRAGFAGPRCEHDLDDCAGRACANGGTCVEGGGAHRCSCALGFGGRDCRERADPCAARPCAHGGRCYAHFSGLVCACAPGYMGARCEFPVHPDGASALPAAPPGLRPGDPQRYLSIATGMVGALLLLLVVALGIGLFMRRRHIVRKHMGGGSGGGSAYPYDVPDYAAYPYDVPDYA
expression level of DLL3 on the cell surface (H1299 cells [3]): did not increase the expression level of DLL3

B3: NP245: engineered DLL3 construct, DLL3 residues 27-492 with PD-L1 signal peptide/transmembrane helix; SEQ ID NO: 35 (protein)
chain: MRIFAVFIFMTYWHLLNAAGVFELQIHSFGPGPGPGAPRSPCSARLPCRLFFRVCLKPGLSEEAAESPCALGAALSARGPVYTEQPGAPAPDLPLPDGLLQVPFRDAWPGTFSFIIETWREELGDQIGGPAWSLLARVAGRRRLAAGGPWARDIQRAGAWELRFSYRARCEPPAVGTACTRLCRPRSAPSRCGPGLRPCAPLEDECEAPLVCRAGCSPEHGFCEQPGECRCLEGWTGPLCTVPVSTSSCLSPRGPSSATTGCLVPGPGPCDGNPCANGGSCSETPRSFECTCPRGFYGLRCEVSGVTCADGPCFNGGLCVGGADPDSAYICHCPPGFQGSNCEKRVDRCSLQPCRNGGLCLDLGHALRCRCRAGFAGPRCEHDLDDCAGRACANGGTCVEGGGAHRCSCALGFGGRDCRERADPCAARPCAHGGRCYAHFSGLVCACAPGYMGARCEFPVHPDGASALPAAPPGLRPGDPQRYLLPLAHPPNERTHLVILGAILLCLGVALTFIFRHMGGGSGGGSAYPYDVPDYAAYPYDVPDYA
expression level of DLL3 on the cell surface (H1299 cells [3]): increased the expression level of DLL3
